Measured values taken from article PMC9414507, “Drug Repurposing Based on Protozoan Proteome: In Vitro Evaluation of In Silico Screened Compounds against Toxoplasma gondii” (Pharmaceutics, 2022).
Like-named read-outs stand apart in the source and are kept apart here.

Assays:
[1] = ref Pandemic Response Box and COVID Box supporting information; cited from earlier work
[2] = Cytotoxicity in mammalian cells (MTT assay); type: cell-based; settings: human, read-out: CC50 (Half Cytotoxic Concentration against HFF cells)
Description: HFF were seeded at 5 × 10^4 cells/well in 96-well microplates and incubated overnight to adhere to the plate. After that, the cells were incubated in the presence of increasing concentrations of the compounds for 72 h at 37 °C in a 5% CO2 humidified incubator. The viability of the cells was determined by the MTT assay as previously described. The medium in each well was replaced by PBS (100 µL/well), MTT (5 mg/mL) was added (20 µL/well), and the plate was incubated for 4 h at 37 °C. […] HFF incubated in D2 without drug treatment were used as viability control. Viability of 100% was expressed based on the optical density of untreated HFF cells, after normalization.

| Structure (SMILES) | Rule of Five [1] | CC50 at 72 h ([2]; HFF) | CC50 at 72 h ([2]; HFF cells) |
| --- | --- | --- | --- |
| CC(C)C[C@H](NC(=O)[C@H](Cc1ccccc1)NC(=O)c1cnccn1)B(O)O [Bortezomib] | 4 | 79 nM |  |
| C[C@H]1COc2c(N3CCN(C)CC3)c(F)cc3c(=O)c(C(=O)O)cn1c23 [Levofloxacin] | 4 |  |  |
| COc1cc(Cc2cnc(N)nc2N)cc(OC)c1OC [Trimethoprim] | 4 |  |  |
| C[C@H]1O[C@@H](O[C@H]2[C@@H](O)C[C@H](O[C@H]3[C@@H](O)C[C@H](O[C@H]4CC[C@@]5(C)[C@H](CC[C@@H]6[C@@H]5CC[C@]5(C)[C@@H](C7=CC(=O)OC7)CC[C@]65O)C4)O[C@@H]3C)O[C@@H]2C)C[C@H](O)[C@@H]1O [Digitoxin] | 2 |  |  |
| COc1c(C)c2c(c(O)c1C/C=C(\C)CCC(=O)O)C(=O)OC2 [Mycophenolic acid] | 4 |  |  |
| NC(=O)c1ncn([C@@H]2O[C@H](CO)[C@@H](O)[C@H]2O)n1 [Ribavirin] | 4 |  |  |
| C[C@H]1O[C@@H](O[C@H]2[C@@H](O)C[C@H](O[C@H]3[C@@H](O)C[C@H](O[C@H]4CC[C@@]5(C)[C@H](CC[C@@H]6[C@@H]5C[C@@H](O)[C@]5(C)[C@@H](C7=CC(=O)OC7)CC[C@]65O)C4)O[C@@H]3C)O[C@@H]2C)C[C@H](O)[C@@H]1O [Digoxin] | 1 |  |  |
| C=CCNc1nc(NCC=C)nc(N2CCN(C(c3ccc(F)cc3)c3ccc(F)cc3)CC2)n1 [Almitrine] | 3 |  | > 20000 nM |
| Nc1nc(F)nc2c1ncn2[C@@H]1O[C@H](CO)[C@@H](O)[C@@H]1O [Fludarabine] | 4 | 2140 nM |  |
| CCCC(CCC)C(=O)O [Valproic acid] | 4 |  |  |
| COc1cccc2c1C(=O)c1c(O)c3c(c(O)c1C2=O)C[C@@](O)(C(=O)CO)C[C@@H]3O[C@H]1C[C@H](N)[C@H](O)[C@H](C)O1 [Doxorubicin] | 1 |  |  |
